Series [1] in a line: Cytotoxicity against mouse L929 cells assessed as reduction in cell viability after 96 hrs by alamar blue assay. The series is classed as cell-based. The conditions noted are these: read-out: LC50. (Alamar Blue is a resazurin reagent that responds to reducing activity.)
Series [2] concerns Trypanosoma cruzi. Put plainly: Antitrypanosomal activity against Trypanosoma cruzi Tulahuen amastigotes infected in mouse L929 cells assessed as reduction in infection level at 10 uM after 96 hrs by beta galactosidase reporter assay relative to control. The series is classed as functional. The settings on record: L929, 96 h. Background: A reporter such as luciferase makes a cellular process visible.

The nature of series [3]: Cytotoxicity against Swiss Webster mouse cardiomyocyte assessed as reduction in cell viability after 24 hrs by PrestoBlue assay. Also on record: species or system Cardiac Muscle Cell. The conditions noted are these: cardiomyocytes, read-out: LC50.
The subject of series [4] is Trypanosoma cruzi. As to the kind of experiment: Antitrypanosomal activity against Trypanosoma cruzi Tulahuen amastigotes infected in mouse L929 cells after 96 hrs by beta galactosidase reporter assay. The series is classed as functional, organism-based. The conditions noted are these: L929, 96 h.
A short description of series [5]: Selectivity index, ratio of LC50 for mouse L929 cells to EC50 for Trypanosoma cruzi Tulahuen amastigotes. The series is classed as toxicity. The settings on record: read-out: Selectivity Index.
Series [6] relates to Trypanosoma cruzi. As to the kind of experiment: Antitrypanosomal activity against bloodstream trypomastigote stage of Trypanosoma cruzi Y infected in Swiss Webster mouse cardiac cells after 24 hrs. Type of series: functional, organism-based.
Series [7] relates to Vero. Put plainly: Cytotoxic activity against African green monkey Vero cells. Type of series: cell-based. The settings on record: Chlorocebus sabaeus.
Series [8] deals with Trypanosoma cruzi. Put plainly: Antitrypanosomal activity against Trypanosoma cruzi Silvio X10/7 intracellular forms. Type of series: functional, organism-based.
Series [9] in a line: Selectivity index, ratio of LC50 for Swiss Webster mouse cardiac cells to EC50 for bloodstream trypomastigote stage of Trypanosoma cruzi Y. Type of series: toxicity. The conditions noted are these: read-out: Selectivity Index.

Molecules are shown by their SMILES. Where only a bound is given, the exact number is not on record here.

Regarding `COc1cc(C)c(S(=O)(=O)Nc2cccnc2)cc1C(C)C`, in series [1], the CC50 at 96 h is more than 200 µM. The inhibition (usually the relative decrease from the control value, in per cent) at 10 µM in series [2] turned out to be 26.7%.
For `COc1ccc(S(=O)(=O)NCc2cccnc2)c2ccccc12` the same measures were more than 200 µM and 28%.
For `CCOc1ccc(S(=O)(=O)Nc2cccnc2)c(C)c1C`, in series [3], the CC50 at 24 h is more than 100 µM. In addition, the figures for the 50% effective concentration (EC50) in series [4] and in [6] were 14.8 µM and more than 50 µM, respectively. Moreover, the selectivity ratio in series [5] is more than 13.5. For the same compound, in series [1], the CC50 at 96 h was more than 200 µM. Also, the inhibition at 10 µM in [2] was 62%.
On to `CCOc1ccc(S(=O)(=O)Nc2cccnc2)c2ccccc12`, for which the concentration for a half-maximal effect (EC50) – broadly, the concentration that produces a half-maximal response – in series [4] was more than 25 µM; in series [7], 50 µM; in series [8], 5.5 µM. Further, in [1], the CC50 at 96 h is more than 400 µM.
Turning to `CCCOc1cc(C)c(S(=O)(=O)Nc2cccnc2)cc1C`, in [3], the CC50 at 24 h is more than 100 µM. Further, the concentration giving a half-maximal response (EC50) in series [4] was 13.2 µM; in series [6], more than 50 µM. Further, in [5], the selectivity ratio is more than 15. Moreover, in series [1], the CC50 at 96 h was more than 200 µM. Moreover, the inhibition at 10 µM in [2] worked out at 78%.
With `CC1CS(=O)(=O)CCN1/N=C/c1ccc([N+](=O)[O-])o1` (centres undefined) [NIFURTIMOX], the half-maximal effective concentration (EC50) in series [7] is 50 µM; in series [8] it was 0.9 µM.
Take `O=C(Cn1ccnc1[N+](=O)[O-])NCc1ccccc1` [BENZNIDAZOLE]: the selectivity ratio in [9] was more than 89; in [5], more than 114. Also, the CC50 at 24 h in series [3] was more than 1000 µM. Further, the EC50 in series [4] amounted to 3.51 µM; in [6], 11.2 µM. Besides, in series [1], the CC50 at 96 h was more than 400 µM. Further, the inhibition at 10 µM in series [2] turned out to be 89.3%.
With `CCOc1ccc(S(=O)(=O)NCc2ccccn2)c(C)c1C`, the CC50 at 96 h in series [1] was more than 200 µM. For the same compound, the inhibition at 10 µM in series [2] came out at 3.6%.
For the compound `CCOc1ccc(S(=O)(=O)NCc2ccncc2)c(C)c1C`, the CC50 at 24 h in [3] is more than 100 µM. Besides, the EC50 in series [4] was 8.62 µM; in series [6], more than 50 µM. For the same compound, in [5], the selectivity ratio is more than 23. Further, in series [1], the CC50 at 96 h was more than 200 µM. The inhibition at 10 µM in [2] came out at 65%.
As for `COc1ccc(S(=O)(=O)Nc2ccc(Cc3ccncc3)cc2)c2ccccc12`, in series [1], the CC50 at 96 h was more than 200 µM. In series [2], the inhibition at 10 µM amounted to 0%.
Regarding `COc1c(C)cc(S(=O)(=O)Nc2cccnc2)c(C)c1C`, the CC50 at 96 h in series [1] was more than 200 µM. The inhibition at 10 µM in series [2] worked out at 2.1%.
For `CCOc1ccc(S(=O)(=O)Nc2ccncc2)c2ccccc12` the same measures were more than 200 µM and 0.1%.
For the compound `CCOc1ccc(S(=O)(=O)Nc2cccnc2)cc1CC`, the CC50 at 96 h in [1] is more than 200 µM. In addition, the inhibition at 10 µM in series [2] came to 3%.
For `CCOc1ccc(S(=O)(=O)NCc2cccnc2)c2ccccc12` the same measures were more than 200 µM and 1.1%.
`COc1ccc(S(=O)(=O)NCc2ccccn2)c(C)c1C`: in series [1], the CC50 at 96 h is more than 200 µM. Further, in [2], the inhibition at 10 µM is 7.2%.
On to `COc1ccc2cc(S(=O)(=O)Nc3cccnc3)ccc2c1`, for which the CC50 at 24 h in series [3] is more than 100 µM. In addition, the figures for the EC50 in [4] and in series [6] were 5.44 µM and more than 50 µM, respectively. Further, the selectivity ratio in series [5] is more than 36. Also, the CC50 at 96 h in [1] is more than 200 µM. In addition, the inhibition at 10 µM in series [2] worked out at 41.1%.
With `CCOc1ccc(S(=O)(=O)Nc2cccnc2)cc1C(C)(C)C`, the CC50 at 96 h in [1] is more than 200 µM. In [2], the inhibition at 10 µM turned out to be 1.9%.
The corresponding values for `CCOc1ccc(S(=O)(=O)Nc2ccncc2)c(C)c1C` are more than 200 µM and 3.6%.

For the origin of these results see ChEMBL document CHEMBL4118163, “Identification and preliminary structure-activity relationship studies of novel pyridyl sulfonamides as potential Chagas disease therapeutic agents” (Bioorg Med Chem Lett, 2018).
